Measurements taken from patent US20080292584A1 (priority 2005, published 2008).
Values joined by “and” are separate entries in the source; they are usually repeats but may differ in a detail not shown here. Equal values may be shown once.

Key:
CYP2A6 [1] = assay: Chemical inhibition of metaxalone turnover in human liver microsomes, CYP2A6 inhibitor pilocarpine; conditions: 1 mg/mL HLM, 60 min, with pilocarpine; for % Turnover / % inhibition of turnover / Conc.: single replicates
Description: Human liver microsomes pooled from 15 individuals (male and female) (Pool HMMC-PL020; CellzDirect, Inc., In Vitro Products and Services Division) were used in some experiments of this study.
% Turnover=100−{[TA(final)]/[mean of TA(0 min)]}×100,
% Inhibition of Turnover=100{1−([TA(0 min)]−[TA(final-inhibitor)])/([TA(0 min)]−[TA(final-no inhibitor)])}.
The inhibitors or vehicle control were incubated with the pooled human liver microsomes (1 mg/mL) and NADPH (1 mM) in 0.1 M phosphate buffer, pH 7.4. […] Incubations were conducted in triplicate and terminated by addition of organic solvent. Samples were extracted and analyzed by LC-MS/MS as described above.

CYP2A6 [2] = biological target: T1, CYP2A6 (Homo sapiens, UniProt P11509); assay: Inhibition of CYP2A6 activity in pooled human liver microsomes (coumarin 8 μM to 7-hydroxy coumarin); format: in vitro ADME
T1 sequence (P11509 1-494): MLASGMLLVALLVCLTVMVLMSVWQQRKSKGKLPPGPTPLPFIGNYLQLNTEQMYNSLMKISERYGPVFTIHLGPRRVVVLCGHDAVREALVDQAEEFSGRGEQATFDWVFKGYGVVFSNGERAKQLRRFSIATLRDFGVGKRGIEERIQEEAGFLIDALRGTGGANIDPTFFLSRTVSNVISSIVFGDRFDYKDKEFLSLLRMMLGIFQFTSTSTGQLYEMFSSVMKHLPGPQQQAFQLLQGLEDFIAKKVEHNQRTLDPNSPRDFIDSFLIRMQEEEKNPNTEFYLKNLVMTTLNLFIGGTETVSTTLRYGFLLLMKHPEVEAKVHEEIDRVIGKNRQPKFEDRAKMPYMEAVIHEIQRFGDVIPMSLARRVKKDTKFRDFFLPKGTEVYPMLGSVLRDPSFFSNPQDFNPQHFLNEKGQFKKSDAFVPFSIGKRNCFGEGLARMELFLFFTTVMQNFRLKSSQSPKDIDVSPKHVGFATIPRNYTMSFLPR
Description: All other incubations were for 30 minutes.
Four replicates were performed.
Two replicates were performed.

CYP2C8 = biological target: T2, CYP2C8 (Homo sapiens, UniProt P10632); assay: Metabolism of metaxalone by expressed recombinant human CYP2C8 at 5 or 20 pmol (Example 4); conditions: for % Turnover Mean / [metaxalone] Mean / % Turnover % / [metaxalone]: 60 min; for % Turnover % / [metaxalone]: single replicates
T2 sequence (P10632 1-490): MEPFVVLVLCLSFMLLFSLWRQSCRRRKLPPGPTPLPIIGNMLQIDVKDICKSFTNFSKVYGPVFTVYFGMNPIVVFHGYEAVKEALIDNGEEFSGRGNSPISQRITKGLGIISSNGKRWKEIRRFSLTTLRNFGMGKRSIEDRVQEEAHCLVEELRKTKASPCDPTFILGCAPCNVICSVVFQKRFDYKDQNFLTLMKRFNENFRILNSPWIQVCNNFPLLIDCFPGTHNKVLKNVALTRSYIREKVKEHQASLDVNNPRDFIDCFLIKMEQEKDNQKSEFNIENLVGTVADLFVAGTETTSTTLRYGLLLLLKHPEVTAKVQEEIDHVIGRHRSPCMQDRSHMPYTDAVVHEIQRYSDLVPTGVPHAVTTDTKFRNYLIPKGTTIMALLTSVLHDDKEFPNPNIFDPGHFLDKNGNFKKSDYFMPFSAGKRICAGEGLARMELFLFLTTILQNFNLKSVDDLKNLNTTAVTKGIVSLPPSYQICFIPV

[3] = Metaxalone turnover in pooled human liver microsomes without inhibitor (LC-MS/MS); conditions: for % Turnover Mean / Mean Conc. / % Turnover / Conc. / Mean metaxalone disappearance: 1 mg/mL microsomal protein; for % Turnover Mean / Mean Conc. / % Turnover / Conc.: 60 min, no inhibitor; for % Turnover / Conc.: single replicates
Description: Stocks were diluted daily in the appropriate buffers such that the final organic solvent concentration was <1%.
The reactions, in 0.1 M phosphate buffer, pH 7.4, were initiated by addition of 1 mM NADPH. Negative controls (no NADPH and heat-treated microsomes) were included to account for any non-enzymatic or non-NADPH dependent reactions. The reactions were terminated at the appropriate time points by addition of 1 volume (relative to total reaction volume) of methanol. The samples were centrifuged at approximately 3000 rpm and the clear supernatant was transferred to a clean tube and analyzed by the LC-MS/MS method described above.

CYP3A4 = CYP3A4 (Homo sapiens, UniProt P08684); assay: Metabolism of metaxalone by expressed recombinant human CYP3A4 at 5 or 20 pmol (Example 4); conditions: for percent turnover / % Turnover Mean / [metaxalone] Mean / % Turnover % / [metaxalone]: 60 min; for % Turnover % / [metaxalone]: single replicates, listed as Metaxalone
[4] = 0.75 μM metaxalone, 5 pmol cyp, listed as Metaxalone
[5] = 0.75 μM metaxalone, 20 pmol cyp
[6] = 0.75 μM metaxalone, 20 pmol cyp, listed as Metaxalone
[7] = 7.5 μM metaxalone, 5 pmol cyp, listed as Metaxalone
[8] = 7.5 μM metaxalone, 20 pmol cyp, listed as Metaxalone

Sequence of CYP3A4 (P08684 2-503 limits assumed): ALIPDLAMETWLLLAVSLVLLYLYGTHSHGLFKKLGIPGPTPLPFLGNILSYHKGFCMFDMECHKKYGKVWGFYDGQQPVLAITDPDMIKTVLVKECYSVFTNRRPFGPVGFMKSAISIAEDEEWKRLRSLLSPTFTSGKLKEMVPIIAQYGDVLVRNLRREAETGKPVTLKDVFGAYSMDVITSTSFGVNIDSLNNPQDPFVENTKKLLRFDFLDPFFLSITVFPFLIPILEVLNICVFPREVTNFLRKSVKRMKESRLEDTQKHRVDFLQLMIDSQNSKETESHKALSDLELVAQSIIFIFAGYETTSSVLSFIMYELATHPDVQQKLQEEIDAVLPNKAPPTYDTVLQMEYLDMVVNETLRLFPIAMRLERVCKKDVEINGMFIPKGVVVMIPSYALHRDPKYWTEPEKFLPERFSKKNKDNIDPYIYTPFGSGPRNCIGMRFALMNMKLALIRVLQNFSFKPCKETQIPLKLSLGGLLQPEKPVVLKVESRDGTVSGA

Cc1cc(C)cc(OCC2CNC(=O)O2)c1 (stereo not shown) [metaxalone, 5-[(3,5-dimethylphenoxy)methyl]-2-oxazolidinone]
% Turnover Mean (CYP2A6 [1]; 0.75 μM metaxalone): 16.0% | % inhibition of turnover Mean (CYP2A6 [1]; 0.75 μM metaxalone): 46.2% | Mean Conc. (CYP2A6 [1]; 0.75 μM metaxalone): 0.648 µM | % Turnover (CYP2A6 [1]; 0.75 μM metaxalone): 13.9% and 14.7% and 19.4% | % inhibition of turnover (CYP2A6 [1]; 0.75 μM metaxalone): 53.2% and 50.6% and 34.9% | Conc. (CYP2A6 [1]; 0.75 μM metaxalone): 0.664 µM and 0.658 µM and 0.622 µM | % Turnover Mean (CYP2A6 [1]; 7.5 μM metaxalone): 12.1% | % inhibition of turnover Mean (CYP2A6 [1]; 7.5 μM metaxalone): 50.8% | Mean Conc. (CYP2A6 [1]; 7.5 μM metaxalone): 7.48 µM | % Turnover (CYP2A6 [1]; 7.5 μM metaxalone): 8.8% and 14.5% and 13.0% | % inhibition of turnover (CYP2A6 [1]; 7.5 μM metaxalone): 64.2% and 41.2% and 47.1% | Conc. (CYP2A6 [1]; 7.5 μM metaxalone): 7.76 µM and 7.28 µM and 7.41 µM | inhibition of CYP activity at a statistically significant level (CYP2A6 [2]; 0.3-100 μM metaxalone): no tested concentration of metaxalone inhibited activity | Inhibitor (CYP2A6 [2]; CYP isozyme 2A6, summary of studies): 0 | Percent of VC (CYP2A6 [2]; metaxalone 0.3 μM): 96.9% | Specific Activity Individual (CYP2A6 [2]; metaxalone 0.3 μM): 430 pmol/min/mg protein and 398 pmol/min/mg protein and 410 pmol/min/mg protein | Specific Activity Mean ± SD (CYP2A6 [2]; metaxalone 0.3 μM): 413 ± 16.0 pmol/min/mg protein | Percent of VC (CYP2A6 [2]; metaxalone 1 μM): 95.7% | Specific Activity Individual (CYP2A6 [2]; metaxalone 1 μM): 399 pmol/min/mg protein and 409 pmol/min/mg protein and 414 pmol/min/mg protein | Specific Activity Mean ± SD (CYP2A6 [2]; metaxalone 1 μM): 407 ± 7.36 pmol/min/mg protein | Percent of VC (CYP2A6 [2]; metaxalone 3 μM): 102% | Specific Activity Individual (CYP2A6 [2]; metaxalone 3 μM): 420 pmol/min/mg protein and 453 pmol/min/mg protein and 435 pmol/min/mg protein | Specific Activity Mean ± SD (CYP2A6 [2]; metaxalone 3 μM): 436 ± 16.1 pmol/min/mg protein | Percent of VC (CYP2A6 [2]; metaxalone 30 μM): 107% | Specific Activity Individual (CYP2A6 [2]; metaxalone 30 μM): 433 pmol/min/mg protein and 461 pmol/min/mg protein and 471 pmol/min/mg protein | Specific Activity Mean ± SD (CYP2A6 [2]; metaxalone 30 μM): 455 ± 19.7 pmol/min/mg protein | Percent of VC (CYP2A6 [2]; metaxalone 100 μM): 94.8% | Specific Activity Individual (CYP2A6 [2]; metaxalone 100 μM): 395 pmol/min/mg protein and 393 pmol/min/mg protein and 423 pmol/min/mg protein | Specific Activity Mean ± SD (CYP2A6 [2]; metaxalone 100 μM): 404 ± 16.6 pmol/min/mg protein | % Turnover Mean (CYP2C8; 0.75 μM metaxalone, 5 pmol cyp): −9.3% | [metaxalone] Mean (CYP2C8; 0.75 μM metaxalone, 5 pmol cyp): 0.865 µM | % Turnover % (CYP2C8; [4]): −2.6% and −10.9% and −14.3% | [metaxalone] (CYP2C8; [4]): 0.812 µM and 0.877 µM and 0.905 µM | % Turnover Mean (CYP2C8; [5]): 2.9% | [metaxalone] Mean (CYP2C8; [5]): 0.768 µM | % Turnover % (CYP2C8; [6]): 0.19% and 6.1% and 2.5% | [metaxalone] (CYP2C8; [6]): 0.790 µM and 0.743 µM and 0.771 µM | % Turnover Mean (CYP2C8; 7.5 μM metaxalone, 5 pmol cyp): 3.0% | [metaxalone] Mean (CYP2C8; 7.5 μM metaxalone, 5 pmol cyp): 8.20 µM | % Turnover % (CYP2C8; 7.5 μM metaxalone, 5 pmol cyp): −1.6% | % Turnover % (CYP2C8; [7]): 0.21% | [metaxalone] (CYP2C8; [7]): 7.58 µM and 8.43 µM and 8.58 µM | % Turnover Mean (CYP2C8; 7.5 μM metaxalone, 20 pmol cyp): 9.3% | [metaxalone] Mean (CYP2C8; 7.5 μM metaxalone, 20 pmol cyp): 7.66 µM | % Turnover % (CYP2C8; [8]): 4.3% and 10.2% and 13.4% | [metaxalone] (CYP2C8; [8]): 8.09 µM and 7.59 µM and 7.31 µM | Substrate (CYP2C8; CYP isozyme 2C8, summary of studies): + | % Turnover Mean ([3]; 0.75 μM metaxalone): 29.8% | Mean Conc. ([3]; 0.75 μM metaxalone): 0.542 µM | % Turnover ([3]; 0.75 μM metaxalone): 30.5% and 27.3% and 31.5% | Conc. ([3]; 0.75 μM metaxalone): 0.536 µM and 0.561 µM and 0.529 µM | Mean metaxalone disappearance ([3]; 0.75 μM metaxalone, 60 minutes): 29.8±1.3% | % Turnover Mean ([3]; 7.5 μM metaxalone): 24.6% | Mean Conc. ([3]; 7.5 μM metaxalone): 6.42 µM | % Turnover ([3]; 7.5 μM metaxalone): 24.8% and 23.9% and 25.1% | Conc. ([3]; 7.5 μM metaxalone): 6.40 µM and 6.48 µM and 6.38 µM | Mean metaxalone disappearance ([3]; 7.5 μM metaxalone, 60 minutes): 24.6±0.3% | maximum turnover ([3]; 60 minutes, 1 mg/mL protein, NADPH-dependent): 38.0% | percent turnover (CYP3A4; 0.75 μM metaxalone, 5 pmol CYP450): 17.9% | % Turnover Mean (CYP3A4; 0.75 μM metaxalone, 5 pmol cyp): 17.9% | [metaxalone] Mean (CYP3A4; 0.75 μM metaxalone, 5 pmol cyp): 0.585 µM | % Turnover % (CYP3A4; 0.75 μM metaxalone, 5 pmol cyp): 20.3% and 18.3% and 15.0% | [metaxalone] (CYP3A4; 0.75 μM metaxalone, 5 pmol cyp): 0.567 µM and 0.582 µM and 0.605 µM | percent turnover (CYP3A4; 0.75 μM metaxalone, 20 pmol CYP450): 34.0% | % Turnover Mean (CYP3A4; [5]): 34.0% | [metaxalone] Mean (CYP3A4; [5]): 0.470 µM | % Turnover % (CYP3A4; [5]): 31.7% and 39.0% and 31.4% | [metaxalone] (CYP3A4; [5]): 0.486 µM and 0.434 µM and 0.488 µM | percent turnover (CYP3A4; 7.5 μM metaxalone, 5 pmol CYP450): 16.6% | % Turnover Mean (CYP3A4; 7.5 μM metaxalone, 5 pmol cyp): 16.6% | [metaxalone] Mean (CYP3A4; 7.5 μM metaxalone, 5 pmol cyp): 6.43 µM | % Turnover % (CYP3A4; 7.5 μM metaxalone, 5 pmol cyp): 17.5% and 16.7% and 15.7% | [metaxalone] (CYP3A4; 7.5 μM metaxalone, 5 pmol cyp): 6.36 µM and 6.43 µM and 6.50 µM | percent turnover (CYP3A4; 7.5 μM metaxalone, 20 pmol CYP450): 32.4% | % Turnover Mean (CYP3A4; 7.5 μM metaxalone, 20 pmol cyp): 32.4% | [metaxalone] Mean (CYP3A4; 7.5 μM metaxalone, 20 pmol cyp): 5.22 µM | % Turnover % (CYP3A4; 7.5 μM metaxalone, 20 pmol cyp): 34.3% and 32.8% and 30.0% | [metaxalone] (CYP3A4; 7.5 μM metaxalone, 20 pmol cyp): 5.07 µM and 5.18 µM and 5.40 µM | Substrate (CYP3A4; CYP isozyme 3A4, summary of studies): +
